Measurements reported in PMC10454728, “A Comparative Study on the Lysosomal Cation Channel TMEM175 Using Automated Whole-Cell Patch-Clamp, Lysosomal Patch-Clamp, and Solid Supported Membrane-Based Electrophysiology: Functional Characterization and High-Throughput Screening Assay Development” (International Journal of Molecular Sciences, 2023).
“And” between values parts separate entries of the source, which are not always exact repeats. Equal entries are not always repeated. “Also recorded” adds a separate entry of the source.

Columns and labels:
TMEM175 [1] = conditions: 100 µM, whole-cell configuration, +80 mV; ref [6]; cited from earlier work
TMEM175 [2] = target: T1, TMEM175 (Homo sapiens, UniProt Q9BSA9); assay: SSME K+ flux compound assay on purified lysosomes overexpressing TMEM175 (SURFE2R 96SE); format: biochemical; conditions: for Relative current / maximum potentiation, SSME: Imax of dose-response curve, baseline 100%, (50 µM)
T1 sequence (Q9BSA9 1-504): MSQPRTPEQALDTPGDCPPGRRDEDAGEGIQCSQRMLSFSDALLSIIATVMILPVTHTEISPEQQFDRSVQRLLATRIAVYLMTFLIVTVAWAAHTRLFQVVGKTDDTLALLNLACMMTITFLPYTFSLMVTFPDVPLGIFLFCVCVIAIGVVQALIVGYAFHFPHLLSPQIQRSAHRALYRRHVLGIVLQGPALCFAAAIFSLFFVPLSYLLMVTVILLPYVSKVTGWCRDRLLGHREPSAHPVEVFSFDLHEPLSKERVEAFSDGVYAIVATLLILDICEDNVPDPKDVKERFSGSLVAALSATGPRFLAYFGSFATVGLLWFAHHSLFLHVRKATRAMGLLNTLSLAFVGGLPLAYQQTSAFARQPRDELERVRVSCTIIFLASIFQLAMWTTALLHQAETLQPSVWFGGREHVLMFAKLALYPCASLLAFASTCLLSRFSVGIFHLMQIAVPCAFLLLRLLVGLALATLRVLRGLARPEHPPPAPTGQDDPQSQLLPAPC
Protocol: In brief, compound measurements using SSME are performed in a three-step process (Figure 6B). First, TMEM175-mediated K^+ translocation is measured through 50 mM K^+ concentration jumps. This represents the baseline current of TMEM175 activity (I0). […] Third, the activation through a 50 mM K^+ concentration jump is repeated, this time in the presence of the compound to record the modulated TMEM175 current (I). In this process, each individual sensor of the 96-well sensor plate is only exposed to a single concentration of the compound. The relative current amplitude I/I0 is used as a measure of the compound effect and averaged across sensors.
We applied 50 mM K^+ concentration jumps in the absence and presence of different compound concentrations to derive information about compound effects on K^+ flux through TMEM175; (B) Time dependence of recorded peak current amplitudes for the complete workflow, which involves multiple sequential measurements. […] The recording of each sensor well starts with the application of a control measurement, rinsing non-activating solution across the sensor (baseline recording). Afterwards, we performed three solution exchange measurements from 50 mM NaCl to 50 mM KCl to measure K^+ flux through TMEM175 (baseline TMEM175 current, I0). We then rinsed the sensor with non-activating solution containing the compound at a given concentration, followed by incubation of 15 min to equilibrate the sensors with the compound. Subsequently, the solution exchange from 50 mM NaCl to 50 mM KCl is repeated twice, but in the presence of the given compound concentration to determine the modulated peak current I. Afterwards, we repeated the measurement in the absence of the compound three times (wash-out) to recover the non-modulated TMEM175 current. We subtracted the average artifact current recorded with control lysosomes from I and I0 (Figure 1K), without considering off-target effects of the tested compound. […] Success rates were determined based on the QC criteria provided in the Methods section. […] We determined average values, AVGpos and AVGneg, and standard deviations, SDpos and SDneg, of the recorded peak currents. […] Error bars represent the SEM obtained from automated data analysis using DataControl96, based on variations of the currents obtained with the TMEM175 sample. Each compound concentration was recorded with at least N = 8 sensors. […] Imin was always fixed to 0 for inhibitors or 1 for enhancers, as indicated. […] A total of 50 µL of 0.1 mM octadecanethiol in isopropanol was added to each sensor well, following incubation for 30 min at room temperature to form an alkanethiol monolayer on the sensor surface. Subsequently, the sensors were washed twice with isopropanol and three times with ddH2O, before dry-tapping on a tissue. The subsequent process of sensor coating with lipid and lysosomes was carried out manually for the SURFE^2R N1 and automated with the SURFE^2R 96SE serving as a pipetting robot. In both cases, 1.5 µL of 7.5 mg/mL 1,2-diphytanoyl-sn-glycero-3-phosphocholine (DPhPC) in n-decane was added to the center of the circular gold surface, followed by the addition of 50 µL of non-activating solution to form the SSM. The composition of the non-activating solution was adjusted for each experiment (Table 2). […] SSM-coated 96-well sensor plates were stored at −80 °C before use.

TMEM175 [3] = target: T1, TMEM175; assay: Whole-cell automated patch-clamp (APC) Cs+ flux assay, SyncroPatch 384i, HEK293 overexpressing TMEM175; format: cell-based
Protocol: To validate the APC assay, we compared currents between TMEM175-overexpressing cells and control HEK293 UT cells. […] In our compound application protocol, which was used to evaluate compound potencies, we consistently administered tool compounds to assess their impact on TMEM175 activity (Figure 7C).
The voltage protocol generation and data collection were performed with PatchControl384 v1.9.0 and analyzed with DataControl384 v2.2.0. A multi-hole, medium resistance chip with four patch-clamp holes per well was used for recording.
DMSO remained constant at 0.2% and BSA at 0.05% in the external solution throughout the assay, if not stated otherwise.
The voltage protocol applied for the investigation of the tool compounds (Figure 7) consisted of a 500 ms ramp from −80 mV to +80 mV, followed by a 400 ms step from −80 mV to +80 mV before returning to the holding potential of 0 mV (Figure 7B). The maximum outward current amplitude obtained at +80 mV from the ramp section was used for analysis. To investigate the blinded test compounds (Figure 8), an alternative voltage protocol was applied. […] The maximum outward current amplitude obtained at 0 mV from the voltage step section was used for analysis. In both voltage protocols, voltage sweeps were repeated every 10 s and currents sampled at 10 kHz.
The application protocol for agonists consisted of two additions of extracellular physiological solution for a minimum of 3 min, followed by the external application of the test compound for a minimum of 2 min (Figure 7C).
Currents recorded after compound addition were normalized to the baseline current before compound addition, averaged, and plotted over the compound concentration to determine the EC50 and IC50 values.

TMEM175 [4] = target: T1, TMEM175; assay: SSME H+ flux assay (pH jumps) on TMEM175 lysosomes (SURFE2R N1); format: biochemical; conditions: corresponding to ~pH 5; read-out: EC50 of H+ influx current vs Δc(H+)
Description: To further investigate the capability of TMEM175 to translocate protons using SSME, we performed H^+ concentration or pH jumps using the SURFE^2R N1. The non-activating solution was set to pH 7.6, defining both the lysosomal and cytosolic pH before the start of the experiment. By exchanging the non-activating for the activating solution, we acidified the cytosolic solution and stimulated H^+ influx through TMEM175 (Figure 5A).
However, the application of pH jumps lead to significant artifact currents of positive magnitude, as observed with the control lysosomes (Figure 5C). These artifacts are a result of protons interacting with the lipid membranes and/or unknown H^+ leak pathways through the lysosomal membrane. To conclude pure TMEM175-related H^+ currents, we subtracted the artifact currents from the currents recorded with the TMEM175 sample. When plotting ΔpH against the artifact-corrected average TMEM175 net H^+ current, we obtain a close-to-linear correlation (Figure 5D).
For comparison with the I/c curve reported for K^+ (Figure 3E), we calculated the difference in H^+ concentration across the lysosomal membrane Δc = cH^out − cH^in, which correlates linearly with the passive H^+ flux J = PH+Δc according to Fick’s law.
We used H^+ concentration or pH jumps to measure H^+ flux through TMEM175. Non-activating solution was set to pH 7.6, while activating solution contained different pH values between pH 7.4 and pH 4.6; (B) Representative current traces induced by pH jumps on lysosomes overexpressing TMEM175. All current traces were recorded with the same sensor, starting from the lowest ΔpH. […] The remaining current mostly reflects the background (artifact) current after full block of TMEM175; (C) Representative current traces from the same experiment on control lysosomes. […] This represents the artifact current also underlying the currents recorded with the TMEM175 sample; (D) SEM and average, artifact-corrected, normalized peak currents from N = 4 sensors, reflecting the H^+ flux through TMEM175, solely driven by the pH gradient. […]

Potency in SSME relative to APC (more potent in SSME) (TMEM175 [2]; EC50 APC / EC50 SSME)	Relative current / maximum potentiation, SSME (TMEM175 [2])	Relative current / maximum potentiation, SSME (TMEM175 [2]; listed as arachidonic acid)	EC50 (TMEM175 [2]; tool enhancers, K+ flux, 50 mM K+ jump, pH 7.6, 0 mV, artifact-corrected, read-out: Half saturation (EC50), SSME)	Relative current, APC (TMEM175 [3]; enhancer, (30 µM), relative to baseline current (100%))	EC50 and maximum potentiation in the absence of BSA, APC (TMEM175 [3]; no BSA vs 0.05% BSA)	Maximum potentiation (increase in TMEM175 activity), APC (TMEM175 [3]; standard assay with 0.05% BSA)	EC50 (TMEM175 [3]; tool compounds, Cs+ flux, outward current at +80 mV, 0.05% BSA, read-out: Half saturation (EC50), APC)	EC50 (TMEM175 [4])	SMILES	Increase in K+ flux through TMEM175, literature (TMEM175 [1])
40 fold	168 ± 5% (50 µM)	168 ± 5%	2300 nM and 2250 nM	137 ± 6% (30 µM)	did not affect; also recorded: unaltered	34%	83 µM	–	CCCCC/C=C\C/C=C\C/C=C\C/C=C\CCCC(=O)O [Arachidonic Acid, arachidonic acid]	14 fold
–	–	–	–	–	–	–	–	9.5 µM	[H+] [H^+]	–
